Data as given in PubChem BioAssay AID2305 (GlaxoSmithKline (GSK), 2010).
Values joined by “and” are separate entries in the source; they are usually repeats but may differ in a detail not shown here. Equal entries are not always repeated.

The compounds below were run on P. falciparum 3D7 growth, pLDH absorbance (assay: P. falciparum 3D7 growth inhibition, dose response, strain 3D7 (AID 2305)).

`O=C(NCCN1CCOCC1)c1ccc(-c2ccc(CNCCCc3ccccc3)cc2)nc1` and `CCCCNCc1ccc(-c2nc(CN(CCCn3ccnc3)C(=O)N[C@@H]3C[C@H]3c3ccccc3)cs2)cc1` are within 1.5-fold of each other in IC50: 780 nM for the first, 740 nM for the second.

First: CC(Cc1ccc(SC(C)(C)C)cc1)NCC(O)c1cccc(Cl)c1 (centres undefined)
Second: Cc1nc(-c2cccc(Nc3nccc(NCC(O)c4cccc(F)c4)n3)c2)cs1 (centres undefined)
The IC50 of the first is 2.2-fold lower: 320 nM for the first, 700 nM for the second. The first is the more potent here.

First: COc1ccccc1C1CCN(C2CCC(NC(=O)/C=C/c3cccc(Cl)c3F)CC2)CC1 (centres undefined)
Second: CC(C)C[C@H](Nc1ccc(C#N)c2ccccc12)C(=O)N[C@@H]1CCCc2ccccc21
The IC50 of the first is 1.7-fold higher: 1290 nM for the first, 760 nM for the second. The second is the more potent here.

Going from `c1ccc2c(Nc3ccc(OCCOCCOc4ccc(Nc5c6ccccc6nc6ccccc56)cc4)cc3)c3ccccc3nc2c1` to `c1ccc(-n2ncc(CNCc3ccc(-c4ccc(-c5nc6ccccc6[nH]5)s4)cc3)n2)cc1`, the IC50 rises from 280 nM to 1400 nM (5-fold).

`Cc1c(C(=O)N(C)C)sc2c1c(=O)n(Cc1ccccc1)c(=O)n2CC(=O)Nc1ccccc1F` and `CCc1cccc(-n2c(=O)c3cccnc3n2CC(=O)NCc2ccccc2Cl)c1` are within 1.5-fold of each other in IC50: 660 nM for the first, 740 nM for the second.

Compared with `O=C(Nc1ccc(-c2nc3ccccc3[nH]2)cc1)c1ccc(N2CCCC2)c([N+](=O)[O-])c1`, `O=C(CCc1cnc[nH]1)Nc1ccc(-c2cccc(-c3nc4ccccc4[nH]3)c2)cc1` is 1.9-fold lower in IC50: 680 nM for the first, 350 nM for the second. The second is the more potent here.

First: COc1ccc(C=NNc2cc(C)nc3c(C)cccc23)c2ccccc12
Second: Cc1cc(C(=O)NCc2ccc(-c3c(C)noc3C)cc2)n(-c2ccccc2)n1
The IC50 of the first is 3.7-fold lower: 220 nM for the first, 820 nM for the second.

First: O=C(Nc1cccc(-c2cccc(-c3nc4ccc(C(F)(F)F)cc4[nH]3)c2)c1)c1cccnc1
Second: Cc1cccc2[nH]c(-c3ccc(-c4cccc(NC(=O)c5ccncc5)c4)cc3)nc12
The IC50 of the first is 2.1-fold lower: 400 nM for the first, 840 nM for the second.

`N/C(=N\c1ncccn1)Nc1cccc(Cc2ccccc2)n1` and `O=C(NCCCc1ccccc1)c1csc(C2CCCN(C(=O)c3ccc(O)c(-c4ccccc4)c3)C2)n1` (centres undefined) are within 1.5-fold of each other in IC50: 930 nM for the first, 910 nM for the second.

`CC(C)COc1ccc(Cl)cc1Cc1ccc(-c2nc3c(F)cccc3[nH]2)o1` and `Cc1[nH]c(C)c(-c2ccc(Oc3ccc(O)cc3)cc2)c(=O)c1Cl` are within 1.5-fold of each other in IC50: 810 nM for the first, 1040 nM for the second.

`O=C(/C=C/c1ccc(Cl)c(Cl)c1)NCCCCCN1CCCN(C(=S)Nc2ccc(Cl)c(Cl)c2)CC1` and `O=C(/C=C/c1ccc(Cl)c(Cl)c1)NCCCCCCN1CCN(C(=O)Nc2cccc(Cl)c2)CC1` are within 1.5-fold of each other in IC50: 870 nM for the first, 980 nM for the second.

First: O=c1cc(NCCCNCc2ccc(C(F)(F)F)cc2F)[nH]c2ccccc12
Second: C=CCOC(=O)N1CCC(CNCc2cccc(-c3ccc(-c4nc5ccccc5[nH]4)s3)c2)C1 (centres undefined)
The IC50 of the first is 3.6-fold higher: 960 nM for the first, 270 nM for the second. The second is the more potent here.

`COc1c(O)cc2oc(-c3ccc(O)cc3)cc(=O)c2c1O` and `Cc1cc(=O)c(-c2ccc(Oc3ccc(F)cc3)cc2)c(C)[nH]1` are within 1.5-fold of each other in IC50: 770 nM for the first, 970 nM for the second.

`CCCOc1cc(OCCC)cc(-c2ccc(C(=O)Nc3ccc4ccc(C)nc4c3)c(=O)[nH]2)c1` and `CCNc1cc(CCCC(=O)OCC)nc(Nc2ccc(C)cc2)n1` are within 1.5-fold of each other in IC50: 750 nM for the first, 770 nM for the second.

`COc1ccc([N+](=O)[O-])cc1N(Cc1ccccc1-c1ccccc1)S(=O)(=O)c1ccc(C(F)(F)F)cc1` and `O=S(=O)(NCCN1CCCC1)c1ccc(-c2ccccc2CNC2Cc3ccccc3C2)cc1` are within 1.5-fold of each other in IC50: 780 nM for the first, 850 nM for the second.

Going from `Cc1nc(N/C=C/c2ccc(O)cc2)cc(N2CCCC2)n1` to `CCOC(=O)CCCc1cc(NC2CCN(C)CC2)nc(Nc2ccc(C)cc2)n1`, the IC50 falls from 1070 nM to 260 nM (4.1-fold).

Going from `CCCN(CCCN(CCCN(CCC)C(C)C)c1cc(C)nc(Nc2ccc(Cl)cc2)n1)C(C)C` to `CN(Cc1c(Cl)cnn1C)S(=O)(=O)c1ccc2ccccc2c1`, the IC50 rises from 110 nM to 1040 nM (9.5-fold). The first is the more potent here.

First: O=C(O)C[C@H](NC(=O)c1cc(-c2ccc3c(c2)OCO3)no1)C(=O)O (tested in a mixture with another compound)
Second: COc1cccc(NC(=O)Nc2ccc(-c3oc(C(=O)NCC(c4ccccc4)N(C)C)cc3-c3ccncc3)cc2)c1 (centres undefined)
The IC50 of the first is 9.6-fold lower: 190 nM for the first, 1830 nM for the second. The first is the more potent here.

Going from `c1cc(-c2ccc(CN3CCN(c4ccncc4)CC3)cc2)cc(-c2nc3ccccc3[nH]2)c1` to `Cc1[nH]c2cc(F)ccc2c1C1=CCN(CCCCC2(C)C(=O)Nc3c(F)cccc32)CC1` (centres undefined), the IC50 rises from 140 nM to 400 nM (2.9-fold). The first is the more potent here.

`Cc1onc(-c2ccccc2Cl)c1C(=O)Nc1cc(Cl)c(Cl)cc1Cl` and `Cc1nc2ccccn2c1C1(O)C(=O)Nc2c(Cl)cc(Cl)cc21` (centres undefined) are within 1.5-fold of each other in IC50: 1180 nM for the first, 1590 nM for the second.

`NC(N)=NN=CC(=O)Nc1cccc(C(F)(F)F)c1` and `N#Cc1cccc(NC(=O)c2ccc(S(=O)(=O)NCC3CCCN3CC3CCCCC3)cc2)c1` (centres undefined) are within 1.5-fold of each other in IC50: 1000 nM for the first, 1050 nM for the second.

First: CCCc1ccccc1OCC(O)CN(C1CCCC1)C1CCCC1 (centres undefined)
Second: CCC(CSC1CCCCC1)N(C)CCN(C)C(CC)CSC1CCCCC1 (centres undefined)
The IC50 of the first is 1.5-fold higher: 470 nM for the first, 310 nM for the second.

Compared with `Cc1nc2nc(N)nc(N)c2c(C)c1Cc1ccc(N)cc1`, `CCc1nc(N)nc(N)c1-c1ccc(F)cc1` is 1.6-fold lower in IC50: 640 nM for the first, 410 nM for the second. The second is the more potent here.

Compound `CC1(C)C(=O)Nc2ccc3c(c21)CC1SC(=O)NN=C31` (centres undefined) has an IC50 of 1490 nM.

`O=C(Nc1cccc(-c2cccc(-c3nc4ccccc4[nH]3)c2)c1)N[C@@H]1C[C@H]1c1ccccc1` was tested, and the IC50 was 1070 nM and 900 nM.
In the case of `CCc1nc(N)nc(N)c1-c1ccc(Cl)cc1`, the IC50 is reported as 60 nM and 30 nM.
